The target of one experiment is T1, human NTCP (Homo sapiens, UniProt Q14973).
T1 construct: The full-length wild-type human NTCP gene (UniProt ID: Q14973); expressed in transfected cells
T1 sequence (Q14973 1-349): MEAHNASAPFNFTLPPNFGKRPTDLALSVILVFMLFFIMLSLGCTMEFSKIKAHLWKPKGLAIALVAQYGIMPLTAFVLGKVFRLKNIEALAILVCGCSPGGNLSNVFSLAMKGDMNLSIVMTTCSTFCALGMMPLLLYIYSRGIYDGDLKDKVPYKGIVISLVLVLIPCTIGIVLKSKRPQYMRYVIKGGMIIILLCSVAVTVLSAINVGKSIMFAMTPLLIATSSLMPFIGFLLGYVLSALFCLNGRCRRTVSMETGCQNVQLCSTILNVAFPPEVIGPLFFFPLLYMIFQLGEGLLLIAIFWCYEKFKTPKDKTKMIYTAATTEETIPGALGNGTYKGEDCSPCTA
As to the kind of experiment: preS1-AX568 binding to HEK-NTCP cells (and its inhibition by TC). It counts as cell-based. The note with it: preincubation with 250 µM TC.

The test system of the next experiment is Gly158Arg human NTCP. The note with it: ref [54]; cited from earlier work.
The test system of experiment [1] is Gly158Arg Common squirrel monkey NTCP. The note with it: ref [54]; cited from earlier work.
From the text: (§1) We aligned the sequence of human NTCP to that of Cynomolgus monkey and Common squirrel monkey, which are representatives of the Old and New World monkeys, respectively (Fig. 6a and Supplementary Fig. 6).
Experiment [2] deals with SVPs from patient ID1 (HBV GtD). Kind of experiment: Binding of nanodisc-reconstituted NTCP-eYFP to SVPs of patient ID1 (GtD). To be noted: 25–100 nM.
Method: (§2) The lipids were then mixed with detergent-purified NTCP and incubated at room temperature for 5 min with gentle agitation. Next, membrane scaffold protein (MSP1D1) was added to the mixture and incubated for 20 min at room temperature. […] Bio-Beads were removed by passing through a gravity column (Bio-Rad), and the mixture was briefly spun at 4000 × g at 4 °C to remove excess lipids. […] Peak fractions containing nanodisc-reconstituted NTCP were collected and concentrated.
(§3) Subviral particles (SVPs) were isolated from plasma of two chronic HBV-infected patients by three consecutive ultracentrifugation steps according to published protocols[13]. Briefly, SVP were separated from virions using rate zonal ultracentrifugation through a sucrose density gradient. SVP-containing fractions were pooled and further purified using caesium chloride (CsCl) flotation ultracentrifugation. Pooled SVP-fractions were further purified using a second sucrose density gradient and concentrated by ultrafiltration. […] For fluorescence measurement, 100 μL HBS buffer was added to each well and the fluorescence intensity of eYFP was detected at 485 nm excitation and 535 nm emission on a fluorescence microplate reader (TECAN Life Sciences).
Experiment [3] relates to SVPs from patient K826 (HBV GtA). As to the kind of experiment: Binding of nanodisc-reconstituted NTCP-eYFP to SVPs of patient K826 (GtA). To be noted: 25–100 nM.
Method: as §2, §3

This is an account of results in paper PMC10954734, “Structure of antiviral drug bulevirtide bound to hepatitis B and D virus receptor protein NTCP” (Nature Communications, 2024).

From the text for Gly158Arg human NTCP: as §1

`C[C@H](CCC(=O)NCCS(=O)(=O)O)[C@H]1CC[C@H]2[C@@H]3[C@H](O)C[C@@H]4C[C@H](O)CC[C@]4(C)[C@H]3C[C@H](O)[C@]12C` [TC, taurocholic acid]: the “block of preS1-AX568 binding to NTCP (in words)” value at human NTCP is “can be blocked”. Moreover, the “TC transport, effect of Gly158Arg mutation” value (with Gly158Arg human NTCP; in experiment [1]) was “maintaining the transport activity of NTCP for TC” each time.
Consider “NTCP: nanodisc-reconstituted, eYFP-labeled wild-type human NTCP”, for which the “binding to GtD SVPs (in words)” value in experiment [2] is “concentration-dependent binding”. In addition, the “binding to GtA SVPs (in words)” value in experiment [3] was “concentration-dependent binding”.
